# In US5700640A, “Inducers of gamma globin gene expression and screening assays therefor” (priority 1994, dated 1997):
# Legend:
# [1] = tested on: gamma globin promoter deletion-luciferase constructs in K562 cells; experiment: BA inducibility of gamma globin promoter deletion constructs; type: cell-based, human; conditions: 5 mM BA, 24 hours
# Text: Luciferase reporter gene constructs containing serial deletions in the 5' end of the gamma globin promoter were made by cloning truncated promoter DNA fragments upstream (i.e., 5') of the luciferase gene in pGL2. The gamma globin 3' Proximal Enhancer element (3'PE) was cloned downstream (i.e., 3') of the luciferase reporter gene in these constructs. Truncated gamma globin promoter DNA fragments were generated by PCR using as the upstream primer oligonucleotides having the sequences:
# To create a construct with 5' terminus at position -140, the -577 reporter gene construct was digested with NcoI and KpnI, the fragment containing the deleted promoter and reporter gene (i.e., the large restriction fragment) was treated with T4 DNA polymerase to fill-in the restriction sites and the fragment was treated with T4 DNA ligase to religate the construct.
# To determine the inducibility of each deletion construct by butyric acid, the constructs were introduced into K562 cells by electropotation as described above. Forty-eight hours after transfection, the cells were treated with 5 mMBA. Luciferase activity was measured 24 hours later. The inducibility of the deletion constructs is illustrated in FIGS. 16 and 17.
# [2] = tested on: neoplastic and non-neoplastic cells; conditions: Newmark et al. 1994; cited from earlier work
structure (smiles),measurement,setting,value
"CCCC(=O)O [BA, butyric acid]",BA inducibility on promoter deletion to -108,[1],markedly reduced the BA inducibility of the construct
same,BA responsiveness on promoter deletion from -1260 to -140,[1],did not significantly alter the responsiveness of the reporter construct to BA
same,induction of differentiation,[2],induce differentiation of neoplastic and non-neoplastic cells
